How the values were obtained:
[1] = Fraction of fexofenadine in zwitterion form at suspension pH; type: physicochemical; settings: pH between 5.8 and 7.0
Text: The conversion of anhydrous form to the zwitterion shape is controlled by the pH of the suspension, which is monitored throughout the manufacture of the product, and controlled by the addition of monobasic sodium phosphate buffers and dibasic sodium phosphate.

[2] = tested on: Bacteria; Fungus and yeast; assay: Preservative system efficacy test (PET), summary statements; type: cell-based; settings: for preservative system efficacy test (PET) results: in fexofenadine suspension with EDTA, Ph. Eur and USP criteria
Experimental: (§1) To generate the formulations, the parabens of the existing formulations were replaced with the tested putative paraben replacement. The formulation stayed otherwise the same. As such, all of the preservatives were tested in combination with EDTA.
(§2) Further studies to test use of potassium sorbate for efficacy as an antimicrobial preservative were carried out in the formula with potassium sorbate in order to confirm the minimum concentration of use and definition of the specification, furthering the American and European monographs, in order to meet the different regulatory requirements of the countries in which this new formula will be submitted. The stability studies were conducted for a period of 36 months.

[3] = tested on: Bacteria; Fungus and yeast; assay: Preservative efficacy test, criteria of the European pharmacopoeia (Ph. Eur 5.1.3); type: cell-based
Experimental: as §1, §2

[4] = stability studies conducted for 36 months
Experimental: as §2

[5] = tested on: Bacteria; Fungus and yeast; assay: Preservative efficacy test, criteria of the US Pharmacopoeia (USP <51>); type: cell-based; settings: American pharmacopoeia criteria
Experimental: as §1, §2

## CC(C)(C(=O)O)c1ccc(C(O)CCCN2CCC(C(O)(c3ccccc3)c3ccccc3)CC2)cc1.Cl (stereo not drawn) [Fexofenadine, 4-[1-hydroxy-4-[4-(hydroxydiphenylmethyl)-1-piperidinyl]-butyl]-α,α-dimethyl benzeneacetic acid hydrochloride]
[1]
  fexofenadine in the form of zwitterion: 97%

## O=C([O-])c1ccccc1.[Na+] [Sodium Benzoate, Sodium benzoate]
[2]
  preservative system efficacy test (PET) results: satisfactory

## C/C=C/C=C/C(=O)[O-].[K+] [Potassium sorbate]
[3]
  point of failure (concentration): 0.3%
[4]
  effective as preservative until (stability time): 36 months
[2]; criteria of both pharmacopoeias, fexofenadine suspension with EDTA
  concentration considered effective as a preservative: 0.4%
[5]
  point of failure (concentration): 0.10

## CCCCCCCCCCCC[N+](C)(C)CCOc1ccccc1 [Domiphen bromide]
[2]
  preservative system efficacy test (PET) results: good
